Measurements from publication PMC2099433, “The binding site for neohesperidin dihydrochalcone at the human sweet taste receptor” (BMC Structural Biology, 2007).
Positions count from the first letter of the chain named. Where a SMILES comes first, the peptide text is derived from it.

Tests used:
[1] = target: T1, hTAS1R2 + hTAS1R3 F730L^5.43 (Homo sapiens, UniProt Q7RTX0+Q8TE23, F730L); test: Calcium response (FLIPR), hTAS1R3 mutant coexpressed with hTAS1R2; type: cell-based; settings: variant F730L^5.43; for Emax: read-out: maximal signal (% of wt)
T1 construct: expressed in transfected cells; host or cells: HEK293T cells stably expressing G16Gust44
T1 sequence (Q8TE23 20-839): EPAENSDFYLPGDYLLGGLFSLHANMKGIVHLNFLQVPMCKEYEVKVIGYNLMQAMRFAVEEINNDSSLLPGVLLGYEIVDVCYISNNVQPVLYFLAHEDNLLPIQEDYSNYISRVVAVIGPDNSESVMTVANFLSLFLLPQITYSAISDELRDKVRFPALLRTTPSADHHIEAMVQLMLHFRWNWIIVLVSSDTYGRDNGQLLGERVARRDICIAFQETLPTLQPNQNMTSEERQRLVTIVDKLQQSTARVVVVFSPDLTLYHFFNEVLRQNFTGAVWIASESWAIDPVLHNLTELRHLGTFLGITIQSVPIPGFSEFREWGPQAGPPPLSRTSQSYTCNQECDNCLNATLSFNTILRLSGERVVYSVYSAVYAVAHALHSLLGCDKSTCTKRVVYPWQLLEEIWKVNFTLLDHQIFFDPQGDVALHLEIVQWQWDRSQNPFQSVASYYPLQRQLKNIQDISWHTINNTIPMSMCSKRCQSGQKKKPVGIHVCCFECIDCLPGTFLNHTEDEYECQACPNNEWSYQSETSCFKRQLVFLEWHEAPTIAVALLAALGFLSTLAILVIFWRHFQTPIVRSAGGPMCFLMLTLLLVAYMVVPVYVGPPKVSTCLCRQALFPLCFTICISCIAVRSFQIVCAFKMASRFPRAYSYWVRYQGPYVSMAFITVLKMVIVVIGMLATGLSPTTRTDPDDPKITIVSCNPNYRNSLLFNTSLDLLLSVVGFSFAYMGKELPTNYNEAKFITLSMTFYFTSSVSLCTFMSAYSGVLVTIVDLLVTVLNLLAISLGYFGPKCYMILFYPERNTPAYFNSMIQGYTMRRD
T1 sequence (Q7RTX0 21-852 F730L): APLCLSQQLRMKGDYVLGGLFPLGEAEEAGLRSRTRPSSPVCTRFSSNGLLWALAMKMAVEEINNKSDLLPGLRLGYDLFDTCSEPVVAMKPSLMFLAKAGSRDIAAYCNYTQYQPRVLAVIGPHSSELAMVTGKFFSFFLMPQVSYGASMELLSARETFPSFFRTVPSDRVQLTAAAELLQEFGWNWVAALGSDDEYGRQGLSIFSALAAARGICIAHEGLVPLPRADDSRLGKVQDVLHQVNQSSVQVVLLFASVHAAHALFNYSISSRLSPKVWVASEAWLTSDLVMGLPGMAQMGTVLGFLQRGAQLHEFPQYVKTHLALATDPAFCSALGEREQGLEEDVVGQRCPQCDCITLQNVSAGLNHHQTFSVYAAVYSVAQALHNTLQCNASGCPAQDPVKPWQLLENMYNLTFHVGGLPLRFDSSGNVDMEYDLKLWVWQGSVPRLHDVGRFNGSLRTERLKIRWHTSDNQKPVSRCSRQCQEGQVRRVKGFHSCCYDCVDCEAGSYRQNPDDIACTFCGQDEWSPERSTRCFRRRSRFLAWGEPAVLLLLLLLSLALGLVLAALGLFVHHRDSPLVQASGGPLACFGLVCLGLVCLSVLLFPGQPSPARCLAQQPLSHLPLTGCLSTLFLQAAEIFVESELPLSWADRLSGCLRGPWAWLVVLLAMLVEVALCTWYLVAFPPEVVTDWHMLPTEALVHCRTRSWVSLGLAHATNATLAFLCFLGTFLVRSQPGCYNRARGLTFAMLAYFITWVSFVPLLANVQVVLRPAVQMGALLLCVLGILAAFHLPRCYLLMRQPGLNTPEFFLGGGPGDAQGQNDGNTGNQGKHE
In short: (§1)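 Calcium mobilization was measured by FLIPR in Fluo4-AM-loaded HEK293T cells coexpressing G16Gust44 with the tagged receptor pair. Signals had mock responses removed and were given as ΔF/F.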

[2] = target: T2, hTAS1R2 + hTAS1R3 R725M^5.38 (Homo sapiens, UniProt Q7RTX0+Q8TE23, R725M); test: as above; type: cell-based; settings: variant R725M^5.38; for Emax: read-out: maximal signal (% of wt)
T2 construct: expressed in transfected cells; host or cells: HEK293T cells stably expressing G16Gust44
T2 sequence (Q7RTX0 21-852 R725M): T1 sequence (Q7RTX0 21-852 F730L) with R705M, L710F
T2 sequence (Q8TE23 20-839): T1 sequence (Q8TE23 20-839)
In short: as §1

EC50 [1] [µM] | Emax [1] [%] | EC50 [2] [µM] | Emax [2] [%] | SMILES
1700 ± 400 | 87 ± 27 | 1500 ± 700 | 56 ± 1 | COC(=O)[C@H](Cc1ccccc1)NC(=O)[C@@H](N)CC(=O)O [aspartame] (HELM PEPTIDE1{D.F.[CO[*:1]]}$$$$V2.0)
900 ± 100 | 70 ± 18 | 1300 ± 400 | 64 ± 14 | COc1ccc(CCC(=O)c2c(O)cc(O[C@@H]3O[C@H](CO)[C@@H](O)[C@H](O)[C@H]3O[C@@H]3O[C@@H](C)[C@H](O)[C@@H](O)[C@H]3O)cc2O)cc1O [NHDC, neohesperidin dihydrochalcone]
